In assay [1] the target is E3 ubiquitin-protein ligase CBL-B (Homo sapiens, UniProt Q13191). In words: Inhibition of N-terminal Avi-tagged human CBL-B (36 to 427 residues) incubated with 60 nM Src kinase for 1.5 hrs followed by incubation with fluorescently labeled UbcH5B-Ub for 1 hr and measured by TR-FRET assay. It counts as single protein. A general note: TR-FRET usually uses a lanthanide donor and a delayed reading to cut background.

The nature of assay [2]: Induction of anti-CD3/CD28 antibodies-stimulated human T cell activation at 1 uM assessed fold increase in IL-2 secretion measured by ELISA assay. It counts as functional, T cell line. (ELISA stands for enzyme-linked immunosorbent assay.)
Assay [3] is described as follows: Induction of anti-CD3/CD28 antibodies-stimulated human T cell activation at 0.3 uM assessed fold increase in IL-2 secretion measured by ELISA assay. In kind it is functional, T cell line.
Assay [4] is described as follows: Induction of anti-CD3 antibodies-stimulated human T cell activation at 1 uM assessed fold increase in CD25 expression measured by ELISA assay. Further: reference of the scale not given here. It counts as functional, T cell line.
Assay [5] in a line: Induction of anti-CD3 antibodies-stimulated human T cell activation at 1 uM assessed fold increase in IL-2 secretion measured by ELISA assay. Further: reference of the scale not given here. In kind it is functional, T cell line.
Assay [6] in a line: Induction of anti-CD3/CD28 antibodies-stimulated human T cell activation at 0.3 uM assessed fold increase in CD25 expression measured by ELISA assay. It counts as functional, T cell line.
A short description of assay [7]: Induction of anti-CD3/CD28 antibodies-stimulated human T cell activation at 1 uM assessed fold increase in CD25 expression measured by ELISA assay. It counts as functional, T cell line.

Each structure is given as a SMILES string.

One may read the IC50 as the midpoint of a concentration-inhibition curve. Low readings indicate inhibition by little substance, high ones a need for much substance.

Chain of E3 ubiquitin-protein ligase CBL-B (Q13191 whole entry, the tested form may be a part): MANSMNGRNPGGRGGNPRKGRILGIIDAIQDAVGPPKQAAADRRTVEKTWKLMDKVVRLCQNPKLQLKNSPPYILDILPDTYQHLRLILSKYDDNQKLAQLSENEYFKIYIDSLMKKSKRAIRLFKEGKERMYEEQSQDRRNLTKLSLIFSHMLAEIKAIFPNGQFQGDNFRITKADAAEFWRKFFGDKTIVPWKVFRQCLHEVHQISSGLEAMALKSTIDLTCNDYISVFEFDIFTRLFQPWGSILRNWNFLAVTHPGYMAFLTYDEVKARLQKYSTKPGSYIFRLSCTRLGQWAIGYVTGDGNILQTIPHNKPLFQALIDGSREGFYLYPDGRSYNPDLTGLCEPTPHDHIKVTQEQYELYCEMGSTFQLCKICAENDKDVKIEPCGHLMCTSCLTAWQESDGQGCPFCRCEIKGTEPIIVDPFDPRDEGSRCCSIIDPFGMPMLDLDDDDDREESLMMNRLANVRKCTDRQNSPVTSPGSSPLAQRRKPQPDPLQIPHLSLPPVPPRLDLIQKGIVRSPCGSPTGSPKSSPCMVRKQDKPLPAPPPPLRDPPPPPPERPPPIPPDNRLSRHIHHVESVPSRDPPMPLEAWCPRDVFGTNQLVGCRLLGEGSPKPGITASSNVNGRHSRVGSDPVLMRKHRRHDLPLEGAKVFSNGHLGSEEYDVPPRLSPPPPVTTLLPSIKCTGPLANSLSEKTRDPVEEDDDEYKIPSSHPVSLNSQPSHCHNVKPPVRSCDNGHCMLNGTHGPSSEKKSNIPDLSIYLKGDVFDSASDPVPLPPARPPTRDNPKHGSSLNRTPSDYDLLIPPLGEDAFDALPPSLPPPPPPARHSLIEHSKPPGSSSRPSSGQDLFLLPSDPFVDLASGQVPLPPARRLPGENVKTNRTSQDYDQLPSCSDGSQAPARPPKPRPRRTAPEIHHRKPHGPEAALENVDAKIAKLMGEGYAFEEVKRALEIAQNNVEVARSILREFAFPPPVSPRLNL

As for `Cc1conc1CC1(c2cccc(NC(=O)c3cc(CN4CC[C@H](O)C4)nc(C4CC4)n3)c2)COC1`, the concentration for half-maximal inhibition (IC50) in assay [1] is under 0.1 µM. In addition, the “fold change (FC)” value in assay [2] is listed as “>=7.5”; in assay [3], “>=7.5”; in assay [4] it was “>=1.001”; in assay [5], “>=0.201”; in assay [6] it was 1.31; in assay [7], 1.31.
Turning to `CN1CC2CC(C1)N2c1cc2c(c(C(F)(F)F)c1)CN(c1cccc([C@@](C)(F)C(F)(F)c3nncn3C)c1)C2=O`, in assay [1], the concentration for half-maximal inhibition (IC50) is under 0.1 µM. Besides, the “fold change (FC)” value in assay [2] worked out at 2.51; in assay [3], 1.01; in assay [4] it was 0.801; in assay [5], 0.051; in assay [6], 1.01; in assay [7], 1.01.
For the compound `Cc1cc2c(c(C3CC3)n1)CN(c1cccc(C3(C(F)(F)c4nncn4C)COC3)c1)C2=O`, in assay [1], the IC50 was under 0.1 µM. In addition, the “fold change (FC)” value is given as 1.01 in assay [2]; 1.01 in assay [3]; 0.601 in assay [4]; 0.051 in assay [5]; 1.01 in assay [6]; 1.01 in assay [7].
Compound `COc1cccc2c1CN(Cc1cc3c(c(C(F)(F)F)c1)CN(c1cccc(C4(Cc5nncn5C)COC4)c1)C3=O)C2` registered a concentration for half-maximal inhibition (IC50) in assay [1] of under 0.1 µM. The “fold change (FC)” value in assay [2] is recorded as “>=7.5”; in assay [3] it was 5; in assay [4], “>=1.001”; in assay [5], “>=0.201”; in assay [6], 1.51; in assay [7], 1.51.
In turn, `Cn1cnnc1CC1(c2cccc(NC(=O)c3cc(C4CC4)nc4ccnn34)c2)COC1` showed a half-inhibitory concentration (IC50) in assay [1] of under 0.1 µM. Also, the “fold change (FC)” value in assay [2] was 2.51; in assay [3], 1.01; in assay [4], 0.601; in assay [5], “<=0.05”; in assay [6], 1.01; in assay [7] it was 1.01.
`CCOc1cc(NC(=O)c2cc(C)nc(C3CC3)n2)cc(C2(Cc3nncn3C)COC2)c1`: the IC50 in assay [1] is under 0.1 µM. Further, the “fold change (FC)” value is recorded as 5 in assay [2]; 2.51 in assay [3]; 0.801 in assay [4]; 0.051 in assay [5]; 1.01 in assay [6]; 1.01 in assay [7].
The compound `CN1C2CCC1CN(c1cc3c(c(C(F)(F)F)c1)CN(c1cccc([C@@](C)(F)C(F)(F)c4nncn4C)c1)C3=O)C2` had a half-maximal inhibitory concentration (IC50) in assay [1] of under 0.1 µM. Moreover, the “fold change (FC)” value in assay [2] was 2.51; in assay [3], 1.01; in assay [4], 0.801; in assay [5], 0.101; in assay [6], 1.01; in assay [7] it was 1.31.
In turn, `Cc1nc2c(o1)CCN(Cc1cc3c(c(C(F)(F)F)c1)CN(c1cccc(C4(Cc5nncn5C)COC4)c1)C3=O)C2` came in with an IC50 in assay [1] of under 0.1 µM. The “fold change (FC)” value is listed as “>=7.5” in assay [2]; 5 in assay [3]; “>=1.001” in assay [4]; “>=0.201” in assay [5]; 1.01 in assay [6]; 1.31 in assay [7].
For `C[C@H](c1cc2c(c(C(F)(F)F)c1)CN(c1cccc(C3(Cc4nncn4C)COC3)c1)C2=O)N1CC(F)C1`, the concentration for half-maximal inhibition (IC50) in assay [1] is under 0.1 µM. The “fold change (FC)” value in assay [2] was 5; in assay [3], 2.51; in assay [4], “>=1.001”; in assay [5] it was 0.101; in assay [6], 1.31; in assay [7], 1.51.
As for `Cc1cc(C(=O)Nc2cccc(C3(Cc4nncn4C)COC3)c2)n2ncc(C)c2n1`, the 50% inhibitory concentration (IC50) in assay [1] was under 0.1 µM. Besides, the “fold change (FC)” value in assay [2] is reported as 2.51; in assay [3], 2.51; in assay [4], 0.801; in assay [5], 0.051; in assay [6] it was 1.01; in assay [7], 1.01.
Compound `Cn1cnnc1CC1(c2cccc(N3Cc4c(cc(CN5CCC(C#N)CC5)cc4C(F)(F)F)C3=O)c2)COC1` showed an IC50 in assay [1] of under 0.1 µM. Besides, the “fold change (FC)” value was “>=7.5” in assay [2]; 5 in assay [3]; “>=1.001” in assay [4]; “>=0.201” in assay [5]; 1.31 in assay [6]; 1.31 in assay [7].
Turning to `Cc1conc1CC1(c2cccc(NC(=O)c3cc(CN4CCC5(CC5)C4)nc(C4CC4)n3)c2)COC1`, in assay [1], the IC50 was under 0.1 µM. Further, the “fold change (FC)” value is reported as “>=7.5” in assay [2]; “>=7.5” in assay [3]; “>=1.001” in assay [4]; “>=0.201” in assay [5]; 1.31 in assay [6]; 1.31 in assay [7].
Regarding `COC1CCCN(Cc2cc3c(c(C(F)(F)F)c2)CN(c2cccc(C4(Cc5nncn5C)COC4)c2)C3=O)C1` (centres undefined), in assay [1], the IC50 was under 0.1 µM. Also, the “fold change (FC)” value in assay [2] is on record as “>=7.5”; in assay [3] it was “>=7.5”; in assay [4] it was “>=1.001”; in assay [5], “>=0.201”; in assay [6], 1.31; in assay [7], 1.51.
As to `Cc1cc(C(=O)Nc2cc(C3CC3)cc(C3(Cc4nncn4C)COC3)c2)nc(C2CC2)n1`, the IC50 in assay [1] is under 0.1 µM. Further, the “fold change (FC)” value in assay [2] is reported as “>=7.5”; in assay [3], 2.51; in assay [4], “>=1.001”; in assay [5], “>=0.201”; in assay [6], 1.01; in assay [7], 1.31.
Turning to `Cn1cnnc1CC1(c2cccc(N3Cc4c(cc(N5CCN6CCC[C@H]6C5)cc4C(F)(F)F)C3=O)c2)COC1`, the IC50 in assay [1] is under 0.1 µM. Further, the “fold change (FC)” value in assay [2] was “>=7.5”; in assay [3], “>=7.5”; in assay [4], “>=1.001”; in assay [5] it was “>=0.201”; in assay [6] it was “>=1.76”; in assay [7], “>=1.76”.
As to `CN1CC2CCC1CN2c1cc2c(c(C(F)(F)F)c1)CN(c1cccc(C3(Cc4nncn4C)COC3)c1)C2=O` (centres undefined), the IC50 in assay [1] was under 0.1 µM. For the same compound, the “fold change (FC)” value in assay [2] is on record as 5; in assay [3] it was 2.51; in assay [4], 0.801; in assay [5], “>=0.201”; in assay [6], 1.01; in assay [7], 1.31.
In assay [1], `Cn1cnnc1[C@H](F)C1(c2cccc(N3Cc4c(cc(CN5[C@H]6CC[C@H]5CC(F)C6)cc4C(F)(F)F)C3=O)c2)COC1` (some centres undefined) gave a half-maximal inhibitory concentration (IC50) of under 0.1 µM. The “fold change (FC)” value is “>=7.5” in assay [2]; “>=7.5” in assay [3]; “>=1.001” in assay [4]; “>=0.201” in assay [5]; “>=1.76” in assay [6]; “>=1.76” in assay [7].
Turning to `Cn1cnnc1CC1(c2cccc(N3Cc4c(cc(N5CCNC6(CC6)C5)cc4C(F)(F)F)C3=O)c2)COC1`, the half-maximal inhibitory concentration (IC50) in assay [1] is under 0.1 µM. For the same compound, the “fold change (FC)” value in assay [2] is listed as “>=7.5”; in assay [3] it was “>=7.5”; in assay [4], “>=1.001”; in assay [5] it was 0.101; in assay [6], 1.31; in assay [7], 1.31.
In assay [1], `Cn1cnnc1CC1(c2cccc(N3Cc4c(cc(CN5C6CCCC5CC6)cc4C(F)(F)F)C3=O)c2)COC1` registered an IC50 of under 0.1 µM. Moreover, the “fold change (FC)” value was “>=7.5” in assay [2]; “>=7.5” in assay [3]; “>=1.001” in assay [4]; “>=0.201” in assay [5]; “>=1.76” in assay [6]; “>=1.76” in assay [7].
`Cn1cnnc1[C@@H](F)C1(c2cccc(N3Cc4c(cc(CN5[C@H]6CC[C@H]5CC(F)C6)cc4C(F)(F)F)C3=O)c2)COC1` (some centres undefined): the half-inhibitory concentration (IC50) in assay [1] is under 0.1 µM. Besides, the “fold change (FC)” value in assay [2] is on record as “>=7.5”; in assay [3] it was 2.51; in assay [4], 0.801; in assay [5] it was “>=0.201”; in assay [6], “>=1.76”; in assay [7], “>=1.76”.
For `Cn1cnnc1CC1(c2cccc(NC(=O)c3cc(CN4CC[C@H](F)C4)nc(C4CC4)n3)c2)COC1`, the IC50 in assay [1] was under 0.1 µM. Further, the “fold change (FC)” value in assay [2] was “>=7.5”; in assay [3], “>=7.5”; in assay [4], “>=1.001”; in assay [5] it was “>=0.201”; in assay [6] it was 1.51; in assay [7], 1.51.
For the compound `CN(C)Cc1cc(C(=O)Nc2cccc(C3(Cc4nncn4C)COC3)c2)nc(C2CC2)n1`, in assay [1], the half-inhibitory concentration (IC50) is under 0.1 µM. The “fold change (FC)” value in assay [2] is “>=7.5”; in assay [3], 2.51; in assay [4] it was “>=1.001”; in assay [5], 0.101; in assay [6] it was 1.31; in assay [7], 1.31.

Values taken from ChEMBL document CHEMBL5050844 (2019).
